Laboratory results as given in patent US20080207532A1, “Use of Nordihydroguaiaretic Acid Derivatives in the Treatment of Drug Resistant Cancer, Viral and Microbial Infection” (Johns Hopkins University, priority 2004, published 2008).
“And” between values parts separate entries of the source, which are not always exact repeats. Equal values may be shown once. Read-outs that look alike come from different tables or passages of the source.

Assays:
[1] = tested on: NCI/ADR-RES xenografts; experiment: NCI/ADR-RES xenografts in nude mice, M4N i.p. or oral; format: in vivo; conditions: 21 days systemic treatment, IP injection daily or oral feeding in food balls
Procedure: MCF-7 cells (a human mammary carcinoma cell line, obtainable from the ATCC P.O. Box 1549, Manassas, Va. 20108) were seeded into 24-well plates at 1.5×10^4 cells/well in 500 μl of Dulbecco's modified Eagle's medium (DMEM) containing 10% fetal bovine serum (FBS) and the antibiotics penicillin and streptomycin. Varying concentrations of M4N were added the next day. After incubation for an additional 3 days, cell proliferation was assessed by the MTT assay. […] The mice were assigned to a treatment group that received M4N dissolved in a 6% Cremaphor EL, 6% ethanol and 88% saline, and to a control group that received the vehicle only. […] Mice received a single daily 100 μL intraperitoneal (i.p.) injection containing 2 mg of M4N for 3 weeks. The control mice received an equal volume of the vehicle. […] The results from the individual mice were combined and the average tumor volume was determined. Statistical significance of the mean differences in tumor volume was assessed by Student's t-test.

[2] = solubility in water; format: physicochemical
[3] = clinical trials to date; cited from earlier work
[4] = tested on: MDR1 mRNA; experiment: RT-PCR of MDR1 mRNA in NCI/ADR-RES cells; format: cell-based, human; conditions: 20 μM M4N, three days
Procedure: Total RNA was isolated using the Trizol Reagent (Invitrogen, Carlsbad, Calif.). RT-PCR was carried out with the Superscript II One-Step RT-PCR system with Platinum Taq DNA Polymerase (Invitrogen) according to the manufacturer's protocol using oligonucleotide primers specific for MDR1: […]
The RT-PCR products were separated by agarose gel electrophoresis and stained with ethidium bromide. Relative band intensities were quantified by ImageJ software (NIH, Bethesda, Md.).
We next examined the effect of M4N on MDR1 gene expression to determine whether the observed synergy between M4N and Dox and paclitaxel in multidrug resistant cells is the result of reversal of the MDR phenotype. We postulated that M4N, through its ability to inhibit Sp1 binding, might down regulate MDR1 gene expression. To examine this possibility, NCI/ADR-RES cells were exposed to 0, 5, 10 and 20 μM M4N for three days, after which total RNA and protein were examined for levels of MDR1 mRNA and Pgp. […] The levels of Pgp were normalized to cyclin B1, whose expression, according to our previous results, is unaffected by M4N (4, 5).

[5] = tested on: NCI/ADR-RES cells; experiment: SRB cytotoxicity assay with median-effect / combination index analysis; format: cell-based, human; conditions: for IC50: NCI/ADR-RES
Procedure: The multidrug resistant cell line, NCI/ADR-RES, was obtained from the DTP Human Tumor Cell Line Screen (Developmental Therapeutics Program, NCI). Both cell lines were maintained in Dulbecco's modified Eagle's medium supplemented with 10% fetal bovine serum and the antibiotics penicillin and streptomycin. […] Stocks of M4N and paclitaxel (Sigma-Aldrich, St. Louis, Mo.) were prepared in dimethyl sulfoxide (DMSO) and added to the cell culture medium so that the final concentration of DMSO was one percent. Aqueous stocks of Dox (Sigma-Aldrich) were prepared and filter sterilized before dilution into growth medium.
NCI/ADR-RES cells were seeded at a density of 2×10^4 cells per well in 24 well plates and 24 h later the growth medium was supplemented with M4N, Dox, paclitaxel or combinations of M4N with Dox or M4N with paclitaxel. MAN was used at concentrations between 1.5 and 48 μM. For the combination of MAN and Dox a constant molar ratio of 2.4:1 (M4N:Dox) was used and for M4N and paclitaxel the ratio was 20:1 (M4N:paclitaxel). Three days after drug addition cytoxicity was assessed with the SRB assay (14) with 540 and 690 nm (reference) absorbance measured with a Power Wave 200 microplate reader (Bio-Tek Instruments, Winooski, Vt.).
The combination index (CD isobologram method of Chou and Talalay (16, 17, 18, 19) which is based on the median effect principle, was used to calculate synergism or antagonism for the combined drug effects. Dose-effect curves for each drug, singly and in combination, in serially-diluted concentrations were plotted using the median-effect equation and plot (18, 20) and the CI equation and plot (19). CI values at different effect and dose levels and isobolograms were generated automatically using the computer software CompuSyn (20). With this method, additive, synergistic or antagonistic effects are indicated by CI values of 1, <1, and >1, respectively. Comparison of the ratio of doses required to reach a given effect level for each single drug and the drugs in combination was used to determine the dose-reduction index (DRI).

[6] = M4N/Dox combination 2.4:1, NCI/ADR-RES
[7] = M4N/paclitaxel combination 20:1, NCI/ADR-RES

SMILES: COc1ccc(C[C@@H](C)[C@@H](C)Cc2ccc(OC)c(OC)c2)cc1OC [M4N, tetra-o-methyl nordihydroguaiaretic acid]
- tumor sizes of xenografts [1]: greatly reduced the tumor sizes
- solubility in aqueous solution [2]: limited solubility
- systemic side effects (gastrointestinal problems, anemia, hair loss) [3]: has not caused the systemic side effects
- level of MDR1 mRNA, of the untreated value, normalized to GAPDH [4]: 36.3%
- DRI value at ED75 [5, 6]: 5.94
- DRI value at ED90 [5, 6]: 24.26
- DRI value at ED95 [5, 6]: 63.16
- DRI value at ED75 [5, 7]: 3.98
- DRI value at ED90 [5, 7]: 5.76
- DRI value at ED95 [5, 7]: 7.40
- IC50 ([5]; three days, combinations at molar ratio 2.4:1 (M4N:Dox) or 20:1 (M4N:paclitaxel), given as M4N + second drug, read-out: Dm, median effect dose (concentration that inhibits cell growth by 50%)): 9.14 µM and 8.19 µM
- IC50 ([5]; single agent, read-out: average IC50): 8.67 µM
